Test results published in patent US20260174769A1, “MACROCYCLIC COMPOUNDS AND METHODS OF USE” (AMGEN INC., priority 2022, published 2026).
pIC50: −log10 of the molar value. Where a name gives a salt, the structure may show the parent alone.

Target: His-tagged KRAS G12D protein (Homo sapiens, UniProt P01116, G12D)
Assay: KRAS G12D TR-FRET Assay
Type: binding
Details: TR-FRET binding
Experimental: The His-tagged KRAS G12D protein (Amgen) was diluted to 20 nM in Assay Buffer (20 mM HEPES, pH 7.4, 10 mM MgCl2, 50 mM NaCl, 0.1% BSA, 0.01% Tween-20, 10 μM GDP) and 2 μL was added to the appropriate wells of the 384-well plate. The plate was incubated for 30 minutes at room temperature. Biotinylated KRPep-2d substrate (Amgen) was diluted to 20 nM in Assay Buffer and 2 μL was added to all wells and incubated for 1 hour at room temperature. Detection Reagent (0.4 nM LANCE Eu-W1024 Anti-6×His (Perkin Elmer AD0401), 5 nM streptavidin-d2 (Cisbio 610SADLA)) was prepared in Assay Buffer, then 4 μL was added to the plate and incubated for 1 hour at room temperature.

Chain of His-tagged KRAS G12D protein (P01116 1-188 isoform P01116-2 G12D): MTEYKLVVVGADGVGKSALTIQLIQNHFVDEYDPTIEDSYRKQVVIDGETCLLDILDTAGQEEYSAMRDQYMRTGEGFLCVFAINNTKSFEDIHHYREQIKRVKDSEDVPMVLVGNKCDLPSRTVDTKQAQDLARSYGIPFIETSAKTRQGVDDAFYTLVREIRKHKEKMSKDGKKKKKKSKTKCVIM

SMILES	pIC50
C[C@H](Oc1nc2c3cnc(c(F)c3n1)-c1c(c(Cl)cc3[nH]ncc13)CCCOC(=O)O[C@@H]1COCCN2C1)[C@@H]1CCCN1C (single isomer, unassigned) [Example 204]	7.47
[2H]C([2H])([2H])[C@@]12COCCN(C1)c1nc(OC[C@@]34CCCN3C[C@H](F)C4)nc3c(F)c(ncc13)-c1c(c(C)cc3[nH]ncc13)CCCOC(=O)O2 (single isomer, unassigned) [Example 352]	8.22
Cc1cc2[nH]ncc2c2c1CCOC(=O)O[C@H]1C[C@]3(CCCN(C3)c3nc(OC[C@@H]4CCCN4C)nc4c(F)c-2ncc34)C1 (single isomer, unassigned) [Example 326]	8.40
O=C1CCCCc2c(Cl)cc3[nH]ncc3c2-c2ncc3c(nc(OC[C@@]45CCCN4C[C@H](F)C5)nc3c2F)N2CC[C@@H]3CCN1[C@@H]3C2 (single isomer, unassigned) [Example 61]	7.10
C[C@@]12CCCN(C1)c1nc(OC[C@@]34CCCN3C[C@H](F)C4)nc3c(F)c(ncc13)-c1cc(O)cc3c1[C@@H](CCCC(=O)N2)CCC3 (single isomer, unassigned) [Example 27, 2,2,2-trifluoroacetate salt]	8.15
CN1CCC[C@H]1COc1nc2c3cnc(c(F)c3n1)-c1c(c(Cl)cc3[nH]ncc13)CCCOC(=O)O[C@]1(C)COCCN2C1 (single isomer, unassigned) [Example 181]	8.22
Fc1c2ncc3c(nc(OC[C@@]45CCCN4C[C@H](F)C5)nc13)N1CCCC[C@H](C1)c1cnn(n1)CCCc1c(Cl)cc3[nH]ncc3c1-2 (single isomer, unassigned) [Example 296]	8.40
C[C@@]12COCCN(C1)c1nc(OC[C@@]34CCCN3C[C@H](F)C4)nc3c(F)c(ncc13)-c1c3c(cc4[nH]ncc14)CC[C@H]3CCOC(=O)O2 (single isomer, unassigned) [Example 365]	8.52
C[C@@]12CCCN(C1)c1nc(OC[C@@]34CCCN3C[C@H](F)C4)nc3c(F)c(ncc13)-c1cc(O)cc3c1[C@H](CCCC(=O)N2)CCC3 (single isomer, unassigned) [Example 28, 2,2,2-trifluoroacetate salt]	7.17
C[C@]12CCCN(C1)c1nc(OC[C@@]34CCCN3C[C@H](F)C4)nc3c(F)c(ncc13)-c1cccc3ccc(F)c(c13)CCOC(=O)N2 (single isomer, unassigned) [Example 78]	5.42
Cc1cc2[nH]ncc2c2c1CCCCO[C@H](C)[C@H]1CN(CCO1)c1nc(OC[C@@]34CCCN3C[C@H](F)C4)nc3c(F)c-2ncc13 (single isomer, unassigned) [Example 241]	5.89
Fc1c2ncc3c(nc(OC[C@@]45CCCN4C[C@H](F)C5)nc13)N1CCCC[C@@H](C1)c1cnn(n1)CCCc1c(Cl)cc3[nH]ncc3c1-2 (single isomer, unassigned) [Example 295]	5.65
O=C1CCCCc2c(Cl)cc3[nH]ncc3c2-c2ncc3c(nc(OC[C@@]45CCCN4C[C@H](F)C5)nc3c2F)N2CC[C@H]3CCN1[C@H]3C2 (single isomer, unassigned) [Example 62]	8.52
CN1CCC[C@H]1COc1nc2c3cnc(c(F)c3n1)-c1c(c(Cl)cc3[nH]ncc13)CCCOC(=O)O[C@]1(CF)COCCN2C1 (single isomer, unassigned) [Example 338]	8.15
[2H]C([2H])([2H])[C@]12COCCN(C1)c1nc(OC[C@@]34CCCN3C[C@H](F)C4)nc3c(F)c(ncc13)-c1c(c(Cl)cc3[nH]ncc13)CCCOC(=O)O2 (single isomer, unassigned) [Example 354]	5.80
O=C1N[C@H]2C[C@@H](O)CN(C2)c2nc(OC[C@@]34CCCN3C[C@H](F)C4)nc3c(F)c(ncc23)-c2c(c(Cl)cc3[nH]ncc23)CCCO1 (single isomer, unassigned) [Example 285]	5.72
Cc1cc2[nH]ncc2c2c1CCCOC(=O)O[C@]1(C)COCCN(C1)c1nc(OC[C@@H]3CCCN3C)nc3c(F)c-2ncc13 (single isomer, unassigned) [Example 183]	8.10
O=C1OC[C@H]2C[C@@H]2c2c(Cl)cc3[nH]ncc3c2-c2ncc3c(nc(OC[C@@]45CCCN4C[C@H](F)C5)nc3c2F)N2CCC[C@H](C2)O1 (racemic) [Example 113]	8.00

SMILES	pIC50
Cc1cc2[nH]ncc2c2c1CCCCO[C@@H](C)[C@H]1CN(CCO1)c1nc(OC[C@@]34CCCN3C[C@H](F)C4)nc3c(F)c-2ncc13 (single isomer, unassigned) [Example 242]	5.94
C[C@@]12COCCN(C1)c1nc(OC[C@@]34CCCN3C[C@H](F)C4)nc3c(F)c(ncc13)-c1c3c(cc4[nH]ncc14)CC[C@@H]3CCOC(=O)O2 (single isomer, unassigned) [Example 366]	6.03
O=C1CCCCc2c(Cl)cccc2-c2ncc3c(nc(OC[C@@]45CCCN4C[C@H](F)C5)nc3c2F)N2CC[C@H]3CCN1[C@H]3C2 (single isomer, unassigned) [Example 162]	7.43
C[C@@]12CCCN(C1)c1nc(OC[C@@]34CCCN3C[C@H](F)C4)nc3c(F)c(ncc13)-c1cccc3ccc(F)c(c13)CCOC(=O)N2 (single isomer, unassigned) [Example 77]	7.85
CN1C(=O)COCC[C@H]2CCc3cc4[nH]ncc4c(c32)-c2ncc3c(nc(OC[C@@]45CCCN4C[C@H](F)C5)nc3c2F)N2CCC[C@@H]1C2 (single isomer, unassigned) [Example 278]	4.71
CN1C(=O)OCCCc2c(Cl)cc3[nH]ncc3c2-c2ncc3c(nc(OC[C@@]45CCCN4C[C@H](F)C5)nc3c2F)N2C[C@@H](O)C[C@@H]1C2 (single isomer, unassigned) [Example 286]	7.09
CN(C)CC1(COc2nc3c4cnc(c(F)c4n2)-c2c(c(Cl)cc4[nH]ncc24)CCCOC(=O)O[C@@]2(C)COCCN3C2)CC1 (single isomer, unassigned) [Example 332]	5.49
Cc1cc2[nH]ncc2c2c1CCCCO[C@H](C)[C@@H]1CN(CCO1)c1nc(OC[C@@]34CCCN3C[C@H](F)C4)nc3c(F)c-2ncc13 (single isomer, unassigned) [Example 243]	5.35
O=C1OC/C=C/c2c(Cl)cc3[nH]ncc3c2-c2ncc3c(nc(OC[C@@]45CCCN4C[C@H](F)C5)nc3c2F)N2CCC[C@H](C2)O1 (single isomer, unassigned) [Example 116]	7.77
Fc1c2ncc3c(nc(OC[C@@]45CCCN4C[C@H](F)C5)nc13)N1CCC[C@@H](C1)c1coc(n1)CCCc1c(Cl)cc3[nH]ncc3c1-2 (single isomer, unassigned) [Example 245]	6.23
O=C1OCCCc2c(Cl)cc3[nH]ncc3c2-c2ncc3c(nc(OC[C@@]45CCCN4C[C@H](F)C5)nc3c2F)N2CCOC[C@](CF)(C2)O1 (single isomer, unassigned) [Example 311]	8.30
C[C@]12CCCCN(C1)c1nc(OC[C@@]34CCCN3C[C@H](F)C4)nc3c(F)c(ncc13)-c1c(c(Cl)cc3[nH]ncc13)CCCCC(=O)N2 (single isomer, unassigned) [Example 165]	4.90
Cc1cc2[nH]ncc2c2c1CCCOC(=O)N[C@@]1(C)CCCCN(C1)c1nc(OC[C@@]34CCCN3C[C@H](F)C4)nc3c(F)c-2ncc13 (single isomer, unassigned) [Example 293]	4.30
CN1C(=O)COCC[C@@H]2CCc3cc4[nH]ncc4c(c32)-c2ncc3c(nc(OC[C@@]45CCCN4C[C@H](F)C5)nc3c2F)N2CCC[C@@H]1C2 (single isomer, unassigned) [Example 279]	6.48
O=C1OCCCc2c(Cl)cc3[nH]ncc3c2-c2ncc3c(nc(OC[C@@]45CCCN4C[C@H](F)C5)nc3c2F)N2CCOC[C@@](CF)(C2)O1 (single isomer, unassigned) [Example 310]	5.64
O=C1OCCCc2c(Cl)cc3[nH]ncc3c2-c2ncc3c(nc(OC[C@@]45CCCN4C[C@H](F)C5)nc3c2F)N2CC[C@@H]3CCN1[C@@H]3C2 (single isomer, unassigned) [Example 176]	6.54
Cc1cc2[nH]ncc2c2c1/C=C\COC(=O)O[C@@H]1CCCN(C1)c1nc(OC[C@@]34CCCN3C[C@H](F)C4)nc3c(F)c-2ncc13 (single isomer, unassigned) [Example 123]	8.10

Same assay, conditions: TR-FRET; read-out: KRAS G12D Binding IC50

SMILES	pIC50
Fc1c2ncc3c(nc(OC[C@@]45CCCN4C[C@H](F)C5)nc13)N1CCO[C@H](C1)c1coc(n1)CCCc1c(Cl)cc3[nH]ncc3c1-2 (single isomer, unassigned) [Example 390]	8.30
Fc1c2ncc3c(nc(OC[C@@]45CCCN4C[C@H](F)C5)nc13)N1CCC[C@H](C1)Cn1ncc(n1)[C@@H]1C[C@@H]1c1c(Cl)cc3[nH]ncc3c1-2 (relative stereo) [Example 383, (11R,13S,19R)-rel-9-chloro-32-fluoro-26-(((2.R.7aS)-2-fluorotetrahydro-1H-pyrrolo[1,2-α]pyrrol-7a(5H)-yl)methoxy)-5,6,16,17,23,25,27,31,34-nonaazaoctacyclo[26.3.1.1~14,17~1~19,23~.0~2,10~0~3,7~.0~11,13~.0~24,29~]tetratriaconta-1(32),2.4,7,9,14(34),15,24,26,28,30-undecaene]	7.89
Fc1c2ncc3c(nc(OC[C@@]45CCCN4C[C@H](F)C5)nc13)N1CCOC[C@H](Cc3ncc(o3)CCc3c(Cl)cc4[nH]ncc4c3-2)C1 (single isomer, unassigned) [Example 375]	7.57
O[C@@H]1C[C@@H]2COCCCCc3c(Cl)cc4[nH]ncc4c3-c3ncc4c(nc(OC[C@@]56CCCN5C[C@H](F)C6)nc4c3F)N(C1)C2 (single isomer, unassigned) [Example 406]	7.68
Fc1c2ncc3c(nc(OC[C@@]45CCCN4C[C@H](F)C5)nc13)N1CCO[C@@H](COCC[C@H]3C[C@H]3c3c(Cl)cc4[nH]ncc4c3-2)C1 (single isomer, unassigned) [Example 393]	5.74
